Source: BindingDB's records for patent US11707539 (Tufts College, 2023)
“And” between values parts separate entries of the source, which are not always exact repeats. Equal entries are not always repeated. Where a SMILES comes first, the peptide text is derived from it.

Columns and labels:
Experiment in all cases: In Vitro Assay Dipeptidyl Peptidase IV. Fibroblast Activation Protein and Prolyl Oligopeptidase
Prolyl endopeptidase FAP = biological target: T1, Prolyl endopeptidase FAP (Homo sapiens, UniProt Q12884)
T1 sequence (Q12884 whole entry): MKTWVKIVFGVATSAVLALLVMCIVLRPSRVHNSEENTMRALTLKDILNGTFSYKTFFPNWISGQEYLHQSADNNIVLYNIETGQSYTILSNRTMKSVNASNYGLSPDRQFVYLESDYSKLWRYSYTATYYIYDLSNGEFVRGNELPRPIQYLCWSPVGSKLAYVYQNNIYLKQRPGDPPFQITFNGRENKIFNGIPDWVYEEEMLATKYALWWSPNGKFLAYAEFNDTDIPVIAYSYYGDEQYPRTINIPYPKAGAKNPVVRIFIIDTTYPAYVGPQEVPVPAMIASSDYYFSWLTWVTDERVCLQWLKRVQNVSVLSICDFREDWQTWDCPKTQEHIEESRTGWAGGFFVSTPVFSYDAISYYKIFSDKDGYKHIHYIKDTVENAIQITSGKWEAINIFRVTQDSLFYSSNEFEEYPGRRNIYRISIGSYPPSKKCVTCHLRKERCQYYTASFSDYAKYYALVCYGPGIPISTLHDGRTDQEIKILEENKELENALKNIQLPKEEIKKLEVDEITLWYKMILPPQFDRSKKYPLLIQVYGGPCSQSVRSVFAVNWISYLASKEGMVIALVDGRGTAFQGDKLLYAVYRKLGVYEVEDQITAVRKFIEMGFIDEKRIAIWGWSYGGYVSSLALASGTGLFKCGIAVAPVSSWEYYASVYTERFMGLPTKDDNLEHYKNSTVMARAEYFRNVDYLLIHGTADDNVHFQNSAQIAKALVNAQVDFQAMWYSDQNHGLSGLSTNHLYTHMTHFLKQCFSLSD
Description: (§1) The purpose of this assay is to determine the IC50 of various inhibitors against recombinant human dipeptidyl peptidase IV (DPPIV), fibroblast activation protein (FAP) or prolyl oligopeptidase (PREP). The assays are conducted in the following steps:1 Dissolve the compound in DMSO to a final concentration of […]. […] Serial dilute (1:10) the 1 mM compound stocks prepared previously into the appropriate assay buffer (FAP: 50 mM Tris, 140 mM NaCl, pH 7.5/PREP: 25 mM Tris, 0.25 M NaCl, pH 7.5/DPPIV: 25 mM Tris, pH 8.0) to one row of a 96-well plate. 3. […] 4. Dilute the enzymes into their appropriate assay buffers. The final enzyme concentrations should be 0.1, 1.2, and 0.6 nM for DPPIV, FAP and PREP respectively. Add 180 μL to each well needed in columns 2-10. Column 1 (A,B,C) should be prepared with 200 ul of appropriate assay buffer as control. Column 1 (D,E,F,G,H) should be prepared with 20 ul of appropriate assay buffer and 180 ul enzyme as no inhibitor control. 5. Add 20 μL of the compound of interest from the dilution plate prepared in step 2 to columns 2-10 of the assay plate where appropriate. Each sample should be tested in triplicate. Allow this to incubate for 10 minutes at room temperature, shaking the plate for the first two minutes. 6. Add 10 μL of 20× substrate prepared in step 3 to each well and allow this to incubate for 15 minutes at room temperature, shaking the plate for the first two minutes. 7. Read the fluorescence at λex: 380, λem: 460.

Prolyl endopeptidase = biological target: T2, Prolyl endopeptidase (Homo sapiens, UniProt P48147)
T2 sequence (P48147 whole entry): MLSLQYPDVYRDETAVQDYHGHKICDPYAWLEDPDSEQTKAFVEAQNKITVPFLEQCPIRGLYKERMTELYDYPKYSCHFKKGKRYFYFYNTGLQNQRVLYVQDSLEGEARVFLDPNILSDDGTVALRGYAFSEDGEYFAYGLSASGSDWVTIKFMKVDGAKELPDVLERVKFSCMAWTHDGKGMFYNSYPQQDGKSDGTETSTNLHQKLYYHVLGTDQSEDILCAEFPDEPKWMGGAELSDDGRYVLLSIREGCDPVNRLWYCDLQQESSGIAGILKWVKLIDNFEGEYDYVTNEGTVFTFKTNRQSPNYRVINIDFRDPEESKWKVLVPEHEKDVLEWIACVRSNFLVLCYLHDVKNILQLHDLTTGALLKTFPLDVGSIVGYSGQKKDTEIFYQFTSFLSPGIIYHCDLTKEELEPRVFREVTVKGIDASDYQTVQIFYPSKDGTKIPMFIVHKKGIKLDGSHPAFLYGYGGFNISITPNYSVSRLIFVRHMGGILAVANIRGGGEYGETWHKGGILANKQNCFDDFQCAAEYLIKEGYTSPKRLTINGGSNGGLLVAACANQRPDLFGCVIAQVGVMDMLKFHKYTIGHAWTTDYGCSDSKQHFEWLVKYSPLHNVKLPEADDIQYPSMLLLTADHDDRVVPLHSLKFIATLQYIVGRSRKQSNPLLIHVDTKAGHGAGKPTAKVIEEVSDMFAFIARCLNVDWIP
Description: as §1

Dipeptidyl peptidase 4 = Dipeptidyl peptidase 4 (Homo sapiens, UniProt P27487)
Description: as §1

Chain of Dipeptidyl peptidase 4 (P27487 whole entry): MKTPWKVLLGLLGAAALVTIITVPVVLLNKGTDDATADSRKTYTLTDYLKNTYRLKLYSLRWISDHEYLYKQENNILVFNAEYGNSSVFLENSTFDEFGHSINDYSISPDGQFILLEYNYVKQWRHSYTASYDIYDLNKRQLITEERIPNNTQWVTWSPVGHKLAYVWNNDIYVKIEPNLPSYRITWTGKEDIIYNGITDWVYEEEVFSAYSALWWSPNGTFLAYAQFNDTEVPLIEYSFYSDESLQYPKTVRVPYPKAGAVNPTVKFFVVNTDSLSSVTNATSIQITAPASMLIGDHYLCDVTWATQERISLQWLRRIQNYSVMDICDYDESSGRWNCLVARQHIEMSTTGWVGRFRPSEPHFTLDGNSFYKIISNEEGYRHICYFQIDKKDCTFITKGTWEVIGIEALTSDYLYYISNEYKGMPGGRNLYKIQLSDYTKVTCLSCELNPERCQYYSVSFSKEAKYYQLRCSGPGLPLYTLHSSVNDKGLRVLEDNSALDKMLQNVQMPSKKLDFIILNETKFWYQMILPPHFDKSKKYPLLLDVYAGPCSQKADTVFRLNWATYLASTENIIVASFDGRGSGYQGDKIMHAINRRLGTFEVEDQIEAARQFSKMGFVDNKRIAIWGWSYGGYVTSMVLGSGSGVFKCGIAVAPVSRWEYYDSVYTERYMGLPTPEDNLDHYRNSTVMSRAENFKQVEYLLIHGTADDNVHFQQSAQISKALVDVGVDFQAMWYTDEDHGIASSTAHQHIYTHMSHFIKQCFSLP

| SMILES | IC50 (Prolyl endopeptidase FAP) | IC50 (Prolyl endopeptidase) | IC50 (Dipeptidyl peptidase 4) |
| --- | --- | --- | --- |
| CC(C)[C@H](NC(=O)CNC(=O)CNC(=O)CN1CCN(CC(=O)O)CCN(CC(=O)O)CCN(CC(=O)O)CC1)C(=O)N[C@H](C)C(=O)N1CCC[C@H]1B(O)O [US11707539, Compound 6522] (HELM PEPTIDE1{[O=C(O)CN1CCN(CC(=O)O)CCN(CC(=O)[*:2])CCN(CC(=O)O)CC1].G.G.V.[dA].[OB(O)[C@@H]1CCCN1[*:1]]}$$$$V2.0) | 3.5 nM and 12 nM | 13 µM | > 100 µM |
| N[C@@H](CCCCNC(=O)CCCNC(=O)CN1CCN(CC(=O)O)CCN(CC(=O)O)CCN(CC(=O)O)CC1)C(=O)N1CCC[C@H]1B(O)O [US11707539, Compound 6551] | 2.6 nM and 2 nM | – | – |
